Data as given in PubChem BioAssay (NCI).
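Briefly, cells in 96-well plates were exposed to five compound concentrations for 48 h, and endpoints were estimated by linear interpolation. TGI: concentration producing complete growth inhibition.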

Assays:
Experiment in all cases: NCI tumour cell line growth inhibition, 48 h
SF-539 CNS = tested on: SF-539 CNS
NCI-H226 lung = tested on: NCI-H226 lung
M14 melanoma = tested on: M14 melanoma
UACC-62 melanoma = tested on: UACC-62 melanoma
UACC-257 melanoma = tested on: UACC-257 melanoma
M19-MEL melanoma = tested on: M19-MEL melanoma
SF-295 CNS = tested on: SF-295 CNS
MALME-3M melanoma = tested on: MALME-3M melanoma
K-562 leukemia = tested on: K-562 leukemia
SK-OV-3 ovarian = tested on: SK-OV-3 ovarian
UO-31 renal = tested on: UO-31 renal
SR leukemia = tested on: SR leukemia
SNB-78 CNS = tested on: SNB-78 CNS
HOP-18 NSCLC = tested on: HOP-18 NSCLC
RPMI-8226 leukemia = tested on: RPMI-8226 leukemia
COLO 205 colon = tested on: COLO 205 colon
SW-620 colon = tested on: SW-620 colon
A498 renal = tested on: A498 renal
OVCAR-5 ovarian = tested on: OVCAR-5 ovarian
OVCAR-3 ovarian = tested on: OVCAR-3 ovarian
786-0 renal = tested on: 786-0 renal
HOP-92 NSCLC = tested on: HOP-92 NSCLC
IGROV1 ovarian = tested on: IGROV1 ovarian
OVCAR-8 ovarian = tested on: OVCAR-8 ovarian
A549 NSCLC = tested on: A549 NSCLC
SNB-75 CNS = tested on: SNB-75 CNS
LOX IMVI melanoma = tested on: LOX IMVI melanoma
SN12C renal = tested on: SN12C renal
LXFL 529 NSCLC = tested on: LXFL 529 NSCLC
SF-268 CNS = tested on: SF-268 CNS
HL-60(TB) leukemia = tested on: HL-60(TB) leukemia
U251 CNS = tested on: U251 CNS
SK-MEL-2 melanoma = tested on: SK-MEL-2 melanoma
XF 498 CNS = tested on: XF 498 CNS
SK-MEL-5 melanoma = tested on: SK-MEL-5 melanoma
HCT-116 colon = tested on: HCT-116 colon
MOLT-4 leukemia = tested on: MOLT-4 leukemia
DMS 114 small cell lung = tested on: DMS 114 small cell lung
DMS 273 small cell lung = tested on: DMS 273 small cell lung
SK-MEL-28 melanoma = tested on: SK-MEL-28 melanoma
HCC-2998 colon = tested on: HCC-2998 colon
KM20L2 colon = tested on: KM20L2 colon
DLD-1 colon = tested on: DLD-1 colon
RXF 393 renal = tested on: RXF 393 renal
NCI-H23 lung = tested on: NCI-H23 lung
SNB-19 CNS = tested on: SNB-19 CNS
HOP-62 NSCLC = tested on: HOP-62 NSCLC
EKVX NSCLC = tested on: EKVX NSCLC
ACHN renal = tested on: ACHN renal
NCI-H522 lung = tested on: NCI-H522 lung
TK-10 renal = tested on: TK-10 renal
KM12 colon = tested on: KM12 colon
CCRF-CEM leukemia = tested on: CCRF-CEM leukemia
HT29 colon = tested on: HT29 colon
HCT-15 colon = tested on: HCT-15 colon
OVCAR-4 ovarian = tested on: OVCAR-4 ovarian
CAKI-1 renal = tested on: CAKI-1 renal
NCI-H460 lung = tested on: NCI-H460 lung
DU-145 prostate = tested on: DU-145 prostate
BT-549 breast = tested on: BT-549 breast
PC-3 prostate = tested on: PC-3 prostate
MCF7 breast = tested on: MCF7 breast
HS 578T breast = tested on: HS 578T breast
MDA-MB-231 breast = tested on: MDA-MB-231 breast
T-47D breast = tested on: T-47D breast
MDA-N = tested on: MDA-N
MDA-MB-435 = tested on: MDA-MB-435
NCI/ADR-RES ovarian = tested on: NCI/ADR-RES ovarian

In the case of `Cc1ccc2ccc(-c3ccccc3)c3c2c1C(=O)c1ccccc1C3=O`, the TGI (SF-539 CNS) was > 100 µM, the TGI (NCI-H226 lung) was > 100 µM and the TGI (M14 melanoma) was > 100 µM. For the same compound, the TGI (UACC-62 melanoma) was > 100 µM, the TGI (UACC-257 melanoma) was > 100 µM and the TGI (M19-MEL melanoma) was > 100 µM. The TGI (SF-295 CNS) was > 100 µM, the TGI (MALME-3M melanoma) was > 100 µM and the TGI (K-562 leukemia) was > 100 µM. The TGI (SK-OV-3 ovarian) was > 100 µM, the TGI (UO-31 renal) was > 100 µM and the TGI (SR leukemia) was > 100 µM. The TGI (SNB-78 CNS) was > 100 µM, the TGI (HOP-18 NSCLC) was > 100 µM and the TGI (RPMI-8226 leukemia) was > 100 µM. The TGI (COLO 205 colon) was > 100 µM, the TGI (SW-620 colon) was > 100 µM and the TGI (A498 renal) was > 100 µM. The TGI (OVCAR-5 ovarian) was > 100 µM, the TGI (OVCAR-3 ovarian) was > 100 µM and the TGI (786-0 renal) was > 100 µM. The TGI (HOP-92 NSCLC) was 74.4 µM, the TGI (IGROV1 ovarian) was > 100 µM and the TGI (OVCAR-8 ovarian) was > 100 µM. The TGI (A549 NSCLC) was > 100 µM, the TGI (SNB-75 CNS) was 68.7 µM and the TGI (LOX IMVI melanoma) was > 100 µM. The TGI (SN12C renal) was > 100 µM, the TGI (LXFL 529 NSCLC) was > 100 µM and the TGI (SF-268 CNS) was > 100 µM. For the same compound, the TGI (HL-60(TB) leukemia) was > 100 µM, the TGI (U251 CNS) was > 100 µM and the TGI (SK-MEL-2 melanoma) was > 100 µM. The TGI (XF 498 CNS) was 99.1 µM, the TGI (SK-MEL-5 melanoma) was > 100 µM and the TGI (HCT-116 colon) was > 100 µM. For the same compound, the TGI (MOLT-4 leukemia) was > 100 µM, the TGI (DMS 114 small cell lung) was > 100 µM and the TGI (DMS 273 small cell lung) was > 100 µM. The TGI (SK-MEL-28 melanoma) was > 100 µM, the TGI (HCC-2998 colon) was > 100 µM and the TGI (KM20L2 colon) was > 100 µM. For the same compound, the TGI (DLD-1 colon) was > 100 µM, the TGI (RXF 393 renal) was > 100 µM and the TGI (NCI-H23 lung) was > 100 µM. The TGI (SNB-19 CNS) was > 100 µM, the TGI (HOP-62 NSCLC) was > 100 µM and the TGI (EKVX NSCLC) was > 100 µM. For the same compound, the TGI (ACHN renal) was > 100 µM, the TGI (NCI-H522 lung) was > 100 µM and the TGI (TK-10 renal) was > 100 µM. The TGI (KM12 colon) was > 100 µM, the TGI (CCRF-CEM leukemia) was > 100 µM and the TGI (HT29 colon) was > 100 µM.

`OCC(O)C(O)C(O)c1nn(-c2ccc(F)cc2)c2nc3cc(Cl)c(Cl)cc3nc12` (stereo unspecified) showed a TGI (SF-539 CNS) of 39.2 µM, a TGI (NCI-H226 lung) of 49.4 µM and a TGI (M14 melanoma) of 91.8 µM. The TGI (UACC-62 melanoma) was 35.9 µM, the TGI (UACC-257 melanoma) was 55.1 µM and the TGI (M19-MEL melanoma) was 57.8 µM. The TGI (SF-295 CNS) was > 100 µM, the TGI (MALME-3M melanoma) was 23.5 µM and the TGI (K-562 leukemia) was 43.2 µM. For the same compound, the TGI (SK-OV-3 ovarian) was 46.4 µM, the TGI (UO-31 renal) was > 100 µM and the TGI (SNB-78 CNS) was 27.4 µM. For the same compound, the TGI (HOP-18 NSCLC) was 52.7 µM, the TGI (RPMI-8226 leukemia) was > 100 µM and the TGI (COLO 205 colon) was > 100 µM. The TGI (SW-620 colon) was > 100 µM, the TGI (OVCAR-5 ovarian) was > 100 µM and the TGI (HCT-15 colon) was > 100 µM. For the same compound, the TGI (OVCAR-3 ovarian) was 49.5 µM, the TGI (OVCAR-4 ovarian) was > 100 µM and the TGI (786-0 renal) was 81.9 µM. It also gave a TGI (CAKI-1 renal) of 55.6 µM, a TGI (IGROV1 ovarian) of 63.6 µM and a TGI (OVCAR-8 ovarian) of 23 µM. It also gave a TGI (A549 NSCLC) of 32 µM, a TGI (SNB-75 CNS) of 13.2 µM and a TGI (LOX IMVI melanoma) of 76.5 µM. For the same compound, the TGI (SN12C renal) was 62.4 µM, the TGI (NCI-H460 lung) was 82.1 µM and the TGI (LXFL 529 NSCLC) was > 100 µM. The TGI (SF-268 CNS) was 43.3 µM, the TGI (HL-60(TB) leukemia) was > 100 µM and the TGI (U251 CNS) was > 100 µM. For the same compound, the TGI (SK-MEL-2 melanoma) was 39.2 µM, the TGI (XF 498 CNS) was 24.6 µM and the TGI (HCT-116 colon) was > 100 µM. It also gave a TGI (MOLT-4 leukemia) of 48.4 µM, a TGI (DMS 114 small cell lung) of 71.4 µM and a TGI (DMS 273 small cell lung) of 48.2 µM. The TGI (SK-MEL-28 melanoma) was 41.9 µM, the TGI (HCC-2998 colon) was > 100 µM and the TGI (KM20L2 colon) was > 100 µM. For the same compound, the TGI (DLD-1 colon) was > 100 µM, the TGI (RXF 393 renal) was 36.9 µM and the TGI (NCI-H23 lung) was 48 µM. The TGI (SNB-19 CNS) was 38 µM, the TGI (HOP-62 NSCLC) was 28.8 µM and the TGI (EKVX NSCLC) was 49.2 µM. For the same compound, the TGI (NCI-H522 lung) was 31.4 µM, the TGI (TK-10 renal) was 59.1 µM and the TGI (KM12 colon) was 84.8 µM. The TGI (CCRF-CEM leukemia) was 40 µM and the TGI (HT29 colon) was > 100 µM.

With `CCOP(=O)(O)C(Nc1ccc(N=Nc2ccccc2)cc1)c1cccc(C(Nc2ccc(N=Nc3ccccc3)cc2)P(=O)(O)OCC)c1` (stereo unspecified) the TGI (SF-539 CNS) was > 100 µM, the TGI (NCI-H226 lung) was > 100 µM and the TGI (M14 melanoma) was > 100 µM. For the same compound, the TGI (UACC-62 melanoma) was 78.1 µM, the TGI (UACC-257 melanoma) was > 100 µM and the TGI (DU-145 prostate) was > 100 µM. The TGI (SF-295 CNS) was 58.1 µM, the TGI (MALME-3M melanoma) was > 100 µM and the TGI (K-562 leukemia) was 40 µM. For the same compound, the TGI (SK-OV-3 ovarian) was > 100 µM, the TGI (UO-31 renal) was > 100 µM and the TGI (SR leukemia) was > 100 µM. For the same compound, the TGI (BT-549 breast) was > 100 µM, the TGI (RPMI-8226 leukemia) was 86.5 µM and the TGI (COLO 205 colon) was 43.2 µM. For the same compound, the TGI (SW-620 colon) was > 100 µM, the TGI (PC-3 prostate) was 67.5 µM and the TGI (MCF7 breast) was > 100 µM. The TGI (A498 renal) was 88.6 µM, the TGI (HS 578T breast) was > 100 µM and the TGI (OVCAR-5 ovarian) was > 100 µM. For the same compound, the TGI (HCT-15 colon) was > 100 µM, the TGI (OVCAR-3 ovarian) was > 100 µM and the TGI (OVCAR-4 ovarian) was > 100 µM. The TGI (786-0 renal) was > 100 µM, the TGI (CAKI-1 renal) was > 100 µM and the TGI (HOP-92 NSCLC) was > 100 µM. For the same compound, the TGI (IGROV1 ovarian) was > 100 µM, the TGI (OVCAR-8 ovarian) was > 100 µM and the TGI (A549 NSCLC) was > 100 µM. For the same compound, the TGI (SNB-75 CNS) was > 100 µM, the TGI (LOX IMVI melanoma) was 77.4 µM and the TGI (SN12C renal) was > 100 µM. The TGI (NCI-H460 lung) was > 100 µM, the TGI (MDA-MB-231 breast) was > 100 µM and the TGI (SF-268 CNS) was > 100 µM. The TGI (HL-60(TB) leukemia) was 69.7 µM, the TGI (U251 CNS) was > 100 µM and the TGI (SK-MEL-2 melanoma) was > 100 µM. The TGI (SK-MEL-5 melanoma) was > 100 µM, the TGI (T-47D breast) was > 100 µM and the TGI (MDA-N) was > 100 µM. The TGI (HCT-116 colon) was > 100 µM, the TGI (MOLT-4 leukemia) was 60.5 µM and the TGI (SK-MEL-28 melanoma) was 93.7 µM. The TGI (HCC-2998 colon) was 71.3 µM, the TGI (RXF 393 renal) was > 100 µM and the TGI (MDA-MB-435) was > 100 µM. The TGI (NCI-H23 lung) was > 100 µM, the TGI (SNB-19 CNS) was > 100 µM and the TGI (HOP-62 NSCLC) was 58.5 µM. For the same compound, the TGI (EKVX NSCLC) was > 100 µM, the TGI (ACHN renal) was > 100 µM and the TGI (NCI-H522 lung) was > 100 µM. The TGI (NCI/ADR-RES ovarian) was > 100 µM, the TGI (TK-10 renal) was > 100 µM and the TGI (KM12 colon) was > 100 µM. For the same compound, the TGI (CCRF-CEM leukemia) was 96.7 µM and the TGI (HT29 colon) was 40.9 µM.
